From the supplement of paper PMC10307832

Experiments:
Assay in all cases: relative viability (nuclei count vs DMSO), 5 days (fraction); higher = more cells survive
[1] = compound: CC1=C(C=CC(=C1)[N+](=O)[O-])NS(=O)(=O)C2=C(C=CC(=C2)Cl)Cl [FH535]
How it was run: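 Viability here means nuclei in treated wells divided by nuclei in vehicle wells, reported as the median across plates. Only plates with control CV below 25% and at least one doubling passed. Lung cancer cell lines in 1536-well plates were exposed to five √10-spaced library-drug doses for 5 days and counted from 4× Hoechst images in MetaXpress.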

[2] = compound: CC1=C(C=CC(=C1)[N+](=O)[O-])NS(=O)(=O)C2=C(C=CC(=C2)Cl)Cl [FH535] + Cc1nc(NC(=O)N2CCC[C@H]2C(N)=O)sc1-c1ccnc(C(C)(C)C(F)(F)F)c1 [Alpelisib] (partner 2 µM)
How it was run: (§1)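 Cells from lung cancer lines were seeded into 1536-well plates and, one day later, dosed by pin tool. Treatments were either a single drug or a fixed dose of an anchor drug with five library-drug doses (not always all listed) in √10 steps. After 5 days, nuclei were stained in a one-step fixation (final 0.05% Triton X-100, 1% formaldehyde, 1 ug/ml Hoechst) and counted on 4× images, and relative viability is the treated-to-vehicle nuclei ratio, as the median of duplicate plates.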

[3] = compound: CC1=C(C=CC(=C1)[N+](=O)[O-])NS(=O)(=O)C2=C(C=CC(=C2)Cl)Cl [FH535] + O=C(c1cc(Cc2n[nH]c(=O)c3ccccc23)ccc1F)N1CCN(C(=O)C2CC2)CC1 [Olaparib] (partner 8 µM)
How it was run: as §1

[4] = compound: CC1=C(C=CC(=C1)[N+](=O)[O-])NS(=O)(=O)C2=C(C=CC(=C2)Cl)Cl [FH535] + CS(=O)(=O)CCNCc1ccc(-c2ccc3ncnc(Nc4ccc(OCc5cccc(F)c5)c(Cl)c4)c3c2)o1 [Lapatinib] (partner 2 µM)
How it was run: as §1

[5] = compound: CC1=C(C=CC(=C1)[N+](=O)[O-])NS(=O)(=O)C2=C(C=CC(=C2)Cl)Cl [FH535] + CS(=O)(=O)N1CCN(Cc2cc3nc(-c4cccc5[nH]ncc45)nc(N4CCOCC4)c3s2)CC1 [Pictilisib] (partner 1 µM)
How it was run: as §1

[6] = compound: CC1=C(C=CC(=C1)[N+](=O)[O-])NS(=O)(=O)C2=C(C=CC(=C2)Cl)Cl [FH535] + C[C@]1(O)C[C@@H](c2nc(-c3ccc4ccc(-c5ccccc5)nc4c3)c3c(N)nccn32)C1 [Linsitinib] (partner 1 µM)
How it was run: as §1

[7] = compound: CC1=C(C=CC(=C1)[N+](=O)[O-])NS(=O)(=O)C2=C(C=CC(=C2)Cl)Cl [FH535] + COc1cc2c(Oc3ccc(NC(=O)C4(C(=O)Nc5ccc(F)cc5)CC4)cc3F)ccnc2cc1OCCCN1CCOCC1 [Foretinib] (partner 0.25 µM)
How it was run: as §1

[8] = compound: CC1=C(C=CC(=C1)[N+](=O)[O-])NS(=O)(=O)C2=C(C=CC(=C2)Cl)Cl [FH535] + C[C@@H](Oc1cc(-c2cnn(C3CCNCC3)c2)cnc1N)c1c(Cl)ccc(F)c1Cl [Crizotinib] (partner 1 µM)
How it was run: as §1

[9] = compound: CC1=C(C=CC(=C1)[N+](=O)[O-])NS(=O)(=O)C2=C(C=CC(=C2)Cl)Cl [FH535] + CC1(C)CCC(c2ccc(Cl)cc2)=C(CN2CCN(c3ccc(C(=O)NS(=O)(=O)c4ccc(N[C@H](CCN5CCOCC5)CSc5ccccc5)c(S(=O)(=O)C(F)(F)F)c4)cc3)CC2)C1 [Navitoclax] (partner 0.5 µM)
How it was run: as §1

[10] = compound: CC1=C(C=CC(=C1)[N+](=O)[O-])NS(=O)(=O)C2=C(C=CC(=C2)Cl)Cl [FH535] + CC(C)C[C@H](NC(=O)[C@H](Cc1ccccc1)NC(=O)c1cnccn1)B(O)O [Bortezomib] (partner 0.002 µM)
How it was run: as §1

[11] = compound: CC1=C(C=CC(=C1)[N+](=O)[O-])NS(=O)(=O)C2=C(C=CC(=C2)Cl)Cl [FH535] + COc1cccc2cc(-c3nc([C@H]4CC[C@H](C(=O)O)CC4)n4ncnc(N)c34)[nH]c12 [OSI-027] (partner 0.5 µM)
How it was run: as §1

[12] = compound: CC1=C(C=CC(=C1)[N+](=O)[O-])NS(=O)(=O)C2=C(C=CC(=C2)Cl)Cl [FH535] + Nc1nc2[nH]cc(CCc3ccc(C(=O)N[C@@H](CCC(=O)O)C(=O)O)cc3)c2c(=O)[nH]1 [Pemetrexed] (partner 0.2 µM)
How it was run: as §1

[13] = compound: CC1=C(C=CC(=C1)[N+](=O)[O-])NS(=O)(=O)C2=C(C=CC(=C2)Cl)Cl [FH535] + CCNC(=O)c1noc(-c2cc(C(C)C)c(O)cc2O)c1-c1ccc(CN2CCOCC2)cc1 [Luminespib] (partner 0.01 µM)
How it was run: as §1

[14] = compound: CC1=C(C=CC(=C1)[N+](=O)[O-])NS(=O)(=O)C2=C(C=CC(=C2)Cl)Cl [FH535] + N=C(N)NC(=N)NCCc1ccccc1 [Phenformin] (partner 250 µM)
How it was run: as §1

[15] = compound: CC1=C(C=CC(=C1)[N+](=O)[O-])NS(=O)(=O)C2=C(C=CC(=C2)Cl)Cl [FH535] + Cc1nc(Nc2ncc(C(=O)Nc3c(C)cccc3Cl)s2)cc(N2CCN(CCO)CC2)n1 [Dasatinib] (partner 0.075 µM)
How it was run: as §1

[16] = compound: CC1=C(C=CC(=C1)[N+](=O)[O-])NS(=O)(=O)C2=C(C=CC(=C2)Cl)Cl [FH535] + Cc1cc(Nc2cc(N3CCN(C)CC3)nc(Sc3ccc(NC(=O)C4CC4)cc3)n2)n[nH]1 [Tozasertib] (partner 0.1 µM)
How it was run: as §1

Cell Line: NCI-H1299
- relative viability ([1]; 0.04 µM): 1.01
- relative viability ([1]; 0.1265 µM): 1.01
- relative viability ([1]; 0.4 µM): 1.02
- relative viability ([1]; 1.265 µM): 0.932
- relative viability ([2]; first compound 0.04 µM): 1.05
- relative viability ([2]; first compound 0.1265 µM): 0.983
- relative viability ([2]; first compound 0.4 µM): 1.05
- relative viability ([2]; first compound 1.265 µM): 1.07
- relative viability ([3]; first compound 0.04 µM): 1.01
- relative viability ([3]; first compound 0.1265 µM): 1.03
- relative viability ([3]; first compound 0.4 µM): 0.973
- relative viability ([3]; first compound 1.265 µM): 0.777
- relative viability ([4]; first compound 0.04 µM): 0.979
- relative viability ([4]; first compound 0.1265 µM): 0.947
- relative viability ([4]; first compound 0.4 µM): 0.963
- relative viability ([4]; first compound 1.265 µM): 0.76
- relative viability ([5]; first compound 0.04 µM): 0.736
- relative viability ([5]; first compound 0.1265 µM): 0.8
- relative viability ([5]; first compound 0.4 µM): 0.772
- relative viability ([5]; first compound 1.265 µM): 0.712
- relative viability ([6]; first compound 0.04 µM): 0.98
- relative viability ([6]; first compound 0.1265 µM): 0.978
- relative viability ([6]; first compound 0.4 µM): 0.957
- relative viability ([6]; first compound 1.265 µM): 0.927
- relative viability ([7]; first compound 0.04 µM): 1.12
- relative viability ([7]; first compound 0.1265 µM): 1.07
- relative viability ([7]; first compound 0.4 µM): 1.12
- relative viability ([7]; first compound 1.265 µM): 1.03
- relative viability ([8]; first compound 0.04 µM): 1
- relative viability ([8]; first compound 0.1265 µM): 0.932
- relative viability ([8]; first compound 0.4 µM): 0.966
- relative viability ([8]; first compound 1.265 µM): 0.876
- relative viability ([9]; first compound 0.04 µM): 1.04
- relative viability ([9]; first compound 0.1265 µM): 1.07
- relative viability ([9]; first compound 0.4 µM): 1.08
- relative viability ([9]; first compound 1.265 µM): 0.954
- relative viability ([10]; first compound 0.04 µM): 1.03
- relative viability ([10]; first compound 0.1265 µM): 1.03
- relative viability ([10]; first compound 0.4 µM): 1.07
- relative viability ([10]; first compound 1.265 µM): 0.809

Cell Line: NCI-H1563
- relative viability ([1]; 0.04 µM): 0.954
- relative viability ([1]; 0.1265 µM): 0.892
- relative viability ([1]; 0.4 µM): 0.995
- relative viability ([1]; 1.265 µM): 0.771
- relative viability ([2]; first compound 0.04 µM): 0.89
- relative viability ([2]; first compound 0.1265 µM): 0.931
- relative viability ([2]; first compound 0.4 µM): 0.981
- relative viability ([2]; first compound 1.265 µM): 0.837
- relative viability ([11]; first compound 0.04 µM): 0.736
- relative viability ([11]; first compound 0.1265 µM): 0.701
- relative viability ([11]; first compound 0.4 µM): 0.801
- relative viability ([11]; first compound 1.265 µM): 0.678
- relative viability ([12]; first compound 0.04 µM): 0.786
- relative viability ([12]; first compound 0.1265 µM): 0.679
- relative viability ([12]; first compound 0.4 µM): 0.752
- relative viability ([12]; first compound 1.265 µM): 0.625
- relative viability ([13]; first compound 0.04 µM): 0.491
- relative viability ([13]; first compound 0.1265 µM): 0.556
- relative viability ([13]; first compound 0.4 µM): 0.615
- relative viability ([13]; first compound 1.265 µM): 0.52
- relative viability ([4]; first compound 0.04 µM): 0.737
- relative viability ([4]; first compound 0.1265 µM): 0.959
- relative viability ([4]; first compound 0.4 µM): 0.898
- relative viability ([4]; first compound 1.265 µM): 0.864
- relative viability ([5]; first compound 0.04 µM): 0.631
- relative viability ([5]; first compound 0.1265 µM): 0.657
- relative viability ([5]; first compound 0.4 µM): 0.627
- relative viability ([5]; first compound 1.265 µM): 0.637
- relative viability ([6]; first compound 0.04 µM): 1.2
- relative viability ([6]; first compound 0.1265 µM): 1.07
- relative viability ([6]; first compound 0.4 µM): 1.25
- relative viability ([6]; first compound 1.265 µM): 1.04
- relative viability ([14]; first compound 0.04 µM): 0.665
- relative viability ([14]; first compound 0.1265 µM): 0.669
- relative viability ([14]; first compound 0.4 µM): 0.644
- relative viability ([14]; first compound 1.265 µM): 0.563
- relative viability ([7]; first compound 0.04 µM): 0.909
- relative viability ([7]; first compound 0.1265 µM): 0.825
- relative viability ([7]; first compound 0.4 µM): 0.994
- relative viability ([7]; first compound 1.265 µM): 0.874
- relative viability ([8]; first compound 0.04 µM): 0.871
- relative viability ([8]; first compound 0.1265 µM): 0.948
- relative viability ([8]; first compound 0.4 µM): 0.88
- relative viability ([8]; first compound 1.265 µM): 0.757
- relative viability ([15]; first compound 0.04 µM): 0.445
- relative viability ([15]; first compound 0.1265 µM): 0.495
- relative viability ([15]; first compound 0.4 µM): 0.508
- relative viability ([15]; first compound 1.265 µM): 0.435
- relative viability ([10]; first compound 0.04 µM): 0.835
- relative viability ([10]; first compound 0.1265 µM): 1.04
- relative viability ([10]; first compound 0.4 µM): 0.816
- relative viability ([10]; first compound 1.265 µM): 0.719

Cell Line: NCI-H1623
- relative viability ([1]; 0.04 µM): 1.02
- relative viability ([1]; 0.1265 µM): 0.948
- relative viability ([1]; 0.4 µM): 0.991
- relative viability ([1]; 1.265 µM): 0.912
- relative viability ([16]; first compound 0.04 µM): 0.391
- relative viability ([16]; first compound 0.1265 µM): 0.426
- relative viability ([16]; first compound 0.4 µM): 0.426
- relative viability ([16]; first compound 1.265 µM): 0.45
- relative viability ([11]; first compound 0.04 µM): 0.424
- relative viability ([11]; first compound 0.1265 µM): 0.525
- relative viability ([11]; first compound 0.4 µM): 0.451
- relative viability ([11]; first compound 1.265 µM): 0.413
- relative viability ([13]; first compound 0.04 µM): 0.609
- relative viability ([13]; first compound 0.1265 µM): 0.574
- relative viability ([13]; first compound 0.4 µM): 0.513
- relative viability ([13]; first compound 1.265 µM): 0.509
- relative viability ([14]; first compound 0.04 µM): 0.551
- relative viability ([14]; first compound 0.1265 µM): 0.523
- relative viability ([14]; first compound 0.4 µM): 0.495
- relative viability ([14]; first compound 1.265 µM): 0.468
- relative viability ([7]; first compound 0.04 µM): 0.816
- relative viability ([7]; first compound 0.1265 µM): 0.855
- relative viability ([7]; first compound 0.4 µM): 0.823
- relative viability ([7]; first compound 1.265 µM): 0.777
- relative viability ([15]; first compound 0.04 µM): 0.515
- relative viability ([15]; first compound 0.1265 µM): 0.468
- relative viability ([15]; first compound 0.4 µM): 0.508
- relative viability ([15]; first compound 1.265 µM): 0.478
